Results as given in patent US6248905A, “Acyl derivatives of glycosyl-L-ascorbic acid” (priority 1998, dated 2001).

What was measured:
physchem = details: phosphate buffer, pH 7
Description: To the solution was added 9.8 ml of 100 mM phosphate buffered aqueous solution (pH 7.0), and the aqueous solution was sterilized, and then incubated at 37° C. or 60° C. while the aqueous solution was sampled at prescribed times, followed by freezing the samples instantly at -30° C. for storing. Thereafter, the aqueous solution stored by freezing was thawed, analyzed on HPLC, and determined for the remaining content of the acyl derivatives based on the absorbance at a wavelength of 254 nm.

[1] = Radical-entrapping ability (DPPH oxidation-inhibitory activity); format: biochemical; details: for EC50: DPPH, ambient temperature, 20 min, read-out: EC50 (50% oxidation-inhibitory-concentration); for Oxidation inhibitory effect (%): sample concentration 10^-4 M
Description: In parallel, as a control, a system using a 60 v/v % aqueous ethanol solution was provided in place of the test samples, and treated similarly as in the case of the acyl derivatives. The percentage (%) of the absorbance of the test samples to that of the control was regarded as an oxidation-inhibitory activity, and the activity was used as an index of radical-entrapping ability. The 50% oxidation-inhibitory-concentration (EC50) was calculated based on a logarithmic value of a concentration of the test sample used and on an oxidation-inhibitory ability shown by the sample at the concentration.

[2] = tested on: guinea pigs with scorbutus; experiment: Anti-scorbutus test; format: in vivo, male Hurtley's guinea pigs; details: for days needed to recover maximum body weight before initiating the administration: oral, 56.80 μmol/head/shot once every morning
Description: In accordance with the method as reported in Journal of Pharmacobio-Dynamics, Vol. 13, pp. 688-695 (1990) by the present inventors, male Hurtley's guinea pigs, 4-week-old, were bred under free intake of water and vitamin C-defective food, commercialized by Oriental Yeast Co., Ltd., Tokyo, Japan, while the guinea pigs were weighed every morning at a prescribed time as an index of the symptom of anti-scorbutus disease. […] In parallel, one group as a control, in which guinea pigs were administered with only a fresh preparation of the same water free of the specimens, was provided and treated similarly as in the groups with the specimens.

[3] = tested on: artificial skin (TESTSKIN, human-skin-restructuring-model); experiment: Skin permeation test using TESTSKIN; details: 10 mM, 37° C., peak levels
[4] = Dynamic test, intravenous administration to rats (blood level); format: in vivo, Male Wister/ST rats
Description: Male Wister/ST rats, 12-14-week-old, were fasted for 16 hours and, under an anesthetic, 200-μl blood was taken from their hearts using a syringe injected with a physiological saline containing 600 units/ml heparin. […] Just after the administration and after a prescribed period of time from the administration, blood was taken from the rats similarly as above at a prescribed time interval, and the blood taken was admixed with an adequate amount of heparin and instantly centrifuged at 4° C. to collect supernatants.

O=C1O[C@H]([C@@H](O)CO)C(O)=C1O[C@H]1O[C@H](CO)[C@@H](O)[C@H](O)[C@H]1O [AA 2G, 2-O-α-D-Monoglucopyranosyl-L-ascorbic acid] gave a degraded at 48 h (physchem) of 3.9%, a degraded at 336 h (physchem) of 1.6% and an EC50 [1] of 90.3 µM. For the same compound, the “Oxidation inhibitory effect (%)” value [1] was 55.4%, the “internal bleeding caused by scorbutus” value ([2]; anatomic finding) was “no such an observation” and the “blood level of alkaline phosphatase” value ([2]; blood) was “recovered almost to the normal level”. The “level of L-ascorbic acid in the blood” value ([2]; blood, numeral data excluded) was “recovered nearly to a normal level”, the “level of L-ascorbic acid in the liver” value ([2]; liver, numeral data excluded) was “recovered nearly to a normal level” and the “days needed to recover maximum body weight before initiating the administration” value [2] was “eight”.

With CCCC(=O)OC[C@H](O)[C@H]1OC(=O)C(O[C@H]2O[C@H](CO)[C@@H](O)[C@H](O)[C@H]2O)=C1O [Example 6-Buty-AA-2G, 6-O-butyryl-2-O-α-D-monoglucopyranosyl-L-ascorbic acid] the EC50 [1] was 99.8 µM and the “Oxidation inhibitory effect (%)” value [1] was 50.1%.

Work on O=C1O[C@H]([C@@H](O)CO)C(O)=C1O [AsA, L-Ascorbic acid] yielded a degraded at 12 h (physchem) of 75.9%, a degraded at 72 h (physchem) of 68.3% and an EC50 [1] of 46.4 µM. For the same compound, the “Oxidation inhibitory effect (%)” value [1] was 93.7%.

With CCCCCCCCCCCC(=O)OC[C@H](O)[C@H]1OC(=O)C(O[C@H]2O[C@H](CO)[C@@H](O)[C@H](O)[C@H]2O)=C1O [Example 6-Dode-AA-2G, 6-O-dodecanoyl-2-O-α-D-monoglucopyranosyl-L-ascorbic acid] the “skin permeability (peak level) relative to L-ascorbic acid” value [3] was 7 times, the EC50 [1] was 63.2 µM and the “Oxidation inhibitory effect (%)” value [1] was 78.3%.

For CCCCCCCCCC(=O)OC[C@H](O)[C@H]1OC(=O)C(O[C@H]2O[C@H](CO)[C@@H](O)[C@H](O)[C@H]2O)=C1O [Example 6-Deca-AA-2G, 6-O-decanoyl-2-O-α-D-monoglucopyranosyl-L-ascorbic acid], the EC50 [1] was 73 µM and the “Oxidation inhibitory effect (%)” value [1] was 67.5%.

In the case of CCCCCC(=O)OC[C@H](O)[C@H]1OC(=O)C(O[C@H]2O[C@H](CO)[C@@H](O)[C@H](O)[C@H]2O)=C1O [Example 6-Hexa-AA-2G, 2-O-α-D-monoglucopyranosyl-6-O-hexanoyl-L-ascorbic acid], the EC50 [1] is reported as 91 µM and the “Oxidation inhibitory effect (%)” value [1] is reported as 55.1%.

In the case of CCCCCCCC(=O)OC[C@H](O)[C@H]1OC(=O)C(O[C@H]2O[C@H](CO)[C@@H](O)[C@H](O)[C@H]2O)=C1O [Example 6-Octa-AA-2G, 2-O-α-D-monoglucopyranosyl-6-O-octanoyl-L-ascorbic acid], the “blood level of 2-O-α-D-monoglucopyranosyl-L-ascorbic acid after its maximum, when administered with 6-Octa-AA-2G” value ([4]; metabolite, after maximum) is reported as “undetectable level”, the concentration at 0.25 h ([4]; rat, blood, 15 min after administration, read-out: blood level of 6-Octa-AA-2G) is reported as 38.2 µM and the concentration at 2 min ([4]; rat, blood, two minutes after administration, read-out: blood level of 6-Octa-AA-2G) is reported as 525 µM. The “blood level of L-ascorbic acid compared with 2-O-α-D-monoglucopyranosyl-L-ascorbic acid” value ([4]; throughout experiment) was “exceeded”, the EC50 [1] was 82.7 µM and the “Oxidation inhibitory effect (%)” value [1] was 60.4%. For the same compound, the “days needed to recover maximum body weight before initiating the administration” value [2] was “six”.
